Experimental data from PubChem BioAssay (NCI).
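Growth conditions: 96-well plates. Treatment: test compound, 48 hours, 5 concentrations. Analysis: linear interpolation between bracketing concentrations; unreached endpoints set to highest concentration. TGI marks complete inhibition of growth.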

Columns and labels:
Assay in all cases: DTP human tumour cell line panel, 48 h
SK-MEL-2 melanoma = tested on: SK-MEL-2 melanoma
SNB-75 CNS = tested on: SNB-75 CNS
TK-10 renal = tested on: TK-10 renal
U251 CNS = tested on: U251 CNS
SF-539 CNS = tested on: SF-539 CNS
CCRF-CEM leukemia = tested on: CCRF-CEM leukemia
IGROV1 ovarian = tested on: IGROV1 ovarian
MOLT-4 leukemia = tested on: MOLT-4 leukemia
KM12 colon = tested on: KM12 colon
LXFL 529 NSCLC = tested on: LXFL 529 NSCLC
SF-268 CNS = tested on: SF-268 CNS
SF-295 CNS = tested on: SF-295 CNS
SNB-78 CNS = tested on: SNB-78 CNS
DLD-1 colon = tested on: DLD-1 colon
HL-60(TB) leukemia = tested on: HL-60(TB) leukemia
HCC-2998 colon = tested on: HCC-2998 colon
LOX IMVI melanoma = tested on: LOX IMVI melanoma
SW-620 colon = tested on: SW-620 colon
UACC-257 melanoma = tested on: UACC-257 melanoma
SR leukemia = tested on: SR leukemia
SK-OV-3 ovarian = tested on: SK-OV-3 ovarian
UACC-62 melanoma = tested on: UACC-62 melanoma
HCT-15 colon = tested on: HCT-15 colon
MALME-3M melanoma = tested on: MALME-3M melanoma
M14 melanoma = tested on: M14 melanoma
NCI-H522 lung = tested on: NCI-H522 lung
DMS 273 small cell lung = tested on: DMS 273 small cell lung
M19-MEL melanoma = tested on: M19-MEL melanoma
NCI-H460 lung = tested on: NCI-H460 lung
DMS 114 small cell lung = tested on: DMS 114 small cell lung
ACHN renal = tested on: ACHN renal
HOP-18 NSCLC = tested on: HOP-18 NSCLC
HOP-62 NSCLC = tested on: HOP-62 NSCLC
OVCAR-5 ovarian = tested on: OVCAR-5 ovarian
RXF-631 renal = tested on: RXF-631 renal
OVCAR-4 ovarian = tested on: OVCAR-4 ovarian
K-562 leukemia = tested on: K-562 leukemia
NCI-H226 lung = tested on: NCI-H226 lung
SK-MEL-5 melanoma = tested on: SK-MEL-5 melanoma
COLO 205 colon = tested on: COLO 205 colon
OVCAR-8 ovarian = tested on: OVCAR-8 ovarian
NCI-H23 lung = tested on: NCI-H23 lung
786-0 renal = tested on: 786-0 renal
CAKI-1 renal = tested on: CAKI-1 renal
SNB-19 CNS = tested on: SNB-19 CNS
A498 renal = tested on: A498 renal
HOP-92 NSCLC = tested on: HOP-92 NSCLC
RPMI-8226 leukemia = tested on: RPMI-8226 leukemia
SK-MEL-28 melanoma = tested on: SK-MEL-28 melanoma
EKVX NSCLC = tested on: EKVX NSCLC
XF 498 CNS = tested on: XF 498 CNS
HT29 colon = tested on: HT29 colon
KM20L2 colon = tested on: KM20L2 colon
UO-31 renal = tested on: UO-31 renal
HCT-116 colon = tested on: HCT-116 colon
A549 NSCLC = tested on: A549 NSCLC
SN12C renal = tested on: SN12C renal
OVCAR-3 ovarian = tested on: OVCAR-3 ovarian
RXF 393 renal = tested on: RXF 393 renal
DU-145 prostate = tested on: DU-145 prostate
PC-3 prostate = tested on: PC-3 prostate
HS 578T breast = tested on: HS 578T breast
MDA-MB-231 breast = tested on: MDA-MB-231 breast
BT-549 breast = tested on: BT-549 breast
NCI/ADR-RES ovarian = tested on: NCI/ADR-RES ovarian
T-47D breast = tested on: T-47D breast
MCF7 breast = tested on: MCF7 breast
MDA-MB-435 = tested on: MDA-MB-435
MDA-N = tested on: MDA-N

SMILES: Cc1ccc(C2CC(c3cccc([N+](=O)[O-])c3)=Nc3ccccc3S2)cc1 (stereo not drawn)
- TGI (SK-MEL-2 melanoma): > 100 µM
- TGI (SNB-75 CNS): > 96.1 µM
- TGI (TK-10 renal): > 100 µM
- TGI (U251 CNS): > 79.5 µM
- TGI (SF-539 CNS): > 96.3 µM
- TGI (CCRF-CEM leukemia): > 81.8 µM
- TGI (IGROV1 ovarian): > 100 µM
- TGI (MOLT-4 leukemia): > 81.8 µM
- TGI (KM12 colon): 46.1 µM
- TGI (LXFL 529 NSCLC): > 100 µM
- TGI (SF-268 CNS): 99.1 µM
- TGI (SF-295 CNS): > 100 µM
- TGI (SNB-78 CNS): > 31.6 µM
- TGI (DLD-1 colon): > 65 µM
- TGI (HL-60(TB) leukemia): 47.5 µM
- TGI (HCC-2998 colon): > 100 µM
- TGI (LOX IMVI melanoma): 51.9 µM
- TGI (SW-620 colon): 46.2 µM
- TGI (UACC-257 melanoma): > 100 µM
- TGI (SR leukemia): > 100 µM
- TGI (SK-OV-3 ovarian): > 100 µM
- TGI (UACC-62 melanoma): > 100 µM
- TGI (HCT-15 colon): > 100 µM
- TGI (MALME-3M melanoma): > 100 µM
- TGI (M14 melanoma): > 100 µM
- TGI (NCI-H522 lung): 64.6 µM
- TGI (DMS 273 small cell lung): > 100 µM
- TGI (M19-MEL melanoma): > 100 µM
- TGI (NCI-H460 lung): > 100 µM
- TGI (DMS 114 small cell lung): 57.2 µM
- TGI (ACHN renal): > 100 µM
- TGI (HOP-18 NSCLC): > 100 µM
- TGI (HOP-62 NSCLC): > 100 µM
- TGI (OVCAR-5 ovarian): > 100 µM
- TGI (RXF-631 renal): > 100 µM
- TGI (OVCAR-4 ovarian): > 100 µM
- TGI (K-562 leukemia): 77.2 µM
- TGI (NCI-H226 lung): > 100 µM
- TGI (SK-MEL-5 melanoma): > 72.2 µM
- TGI (COLO 205 colon): > 100 µM
- TGI (OVCAR-8 ovarian): > 71.4 µM
- TGI (NCI-H23 lung): > 76.4 µM
- TGI (786-0 renal): 51.9 µM
- TGI (CAKI-1 renal): > 100 µM
- TGI (SNB-19 CNS): > 100 µM
- TGI (A498 renal): > 100 µM
- TGI (HOP-92 NSCLC): 52.2 µM
- TGI (RPMI-8226 leukemia): 41.7 µM
- TGI (SK-MEL-28 melanoma): > 100 µM
- TGI (EKVX NSCLC): > 100 µM
- TGI (XF 498 CNS): > 100 µM
- TGI (HT29 colon): 98.1 µM
- TGI (KM20L2 colon): > 100 µM
- TGI (UO-31 renal): > 83.6 µM
- TGI (HCT-116 colon): 27.1 µM
- TGI (A549 NSCLC): > 100 µM
- TGI (SN12C renal): > 90.4 µM
- TGI (OVCAR-3 ovarian): > 74.7 µM
- TGI (RXF 393 renal): > 89.3 µM

SMILES: COC(=O)C1=C(C=O)C2C=CC1C2 (stereo not drawn)
- TGI (SK-MEL-2 melanoma): > 100 µM
- TGI (SNB-75 CNS): > 100 µM
- TGI (TK-10 renal): > 76 µM
- TGI (U251 CNS): > 100 µM
- TGI (SF-539 CNS): > 100 µM
- TGI (CCRF-CEM leukemia): 55 µM
- TGI (IGROV1 ovarian): > 100 µM
- TGI (MOLT-4 leukemia): 71.2 µM
- TGI (KM12 colon): > 100 µM
- TGI (LXFL 529 NSCLC): 39.7 µM
- TGI (SF-268 CNS): > 100 µM
- TGI (DU-145 prostate): > 100 µM
- TGI (SF-295 CNS): > 100 µM
- TGI (SNB-78 CNS): > 100 µM
- TGI (DLD-1 colon): 78.5 µM
- TGI (PC-3 prostate): > 100 µM
- TGI (HL-60(TB) leukemia): 50.6 µM
- TGI (HCC-2998 colon): > 100 µM
- TGI (LOX IMVI melanoma): > 72.3 µM
- TGI (SW-620 colon): 62.6 µM
- TGI (UACC-257 melanoma): 71.3 µM
- TGI (SR leukemia): > 100 µM
- TGI (SK-OV-3 ovarian): > 100 µM
- TGI (HS 578T breast): > 100 µM
- TGI (UACC-62 melanoma): > 100 µM
- TGI (HCT-15 colon): 62.2 µM
- TGI (MALME-3M melanoma): > 100 µM
- TGI (MDA-MB-231 breast): > 100 µM
- TGI (BT-549 breast): > 100 µM
- TGI (M14 melanoma): 67.1 µM
- TGI (NCI-H522 lung): 61.4 µM
- TGI (DMS 273 small cell lung): > 65.1 µM
- TGI (M19-MEL melanoma): > 70.3 µM
- TGI (NCI-H460 lung): > 100 µM
- TGI (DMS 114 small cell lung): > 84.6 µM
- TGI (NCI/ADR-RES ovarian): > 100 µM
- TGI (T-47D breast): > 100 µM
- TGI (ACHN renal): > 81.2 µM
- TGI (HOP-18 NSCLC): > 91.4 µM
- TGI (HOP-62 NSCLC): > 100 µM
- TGI (OVCAR-5 ovarian): > 100 µM
- TGI (RXF-631 renal): > 100 µM
- TGI (OVCAR-4 ovarian): > 100 µM
- TGI (K-562 leukemia): 74.5 µM
- TGI (NCI-H226 lung): > 100 µM
- TGI (SK-MEL-5 melanoma): > 100 µM
- TGI (COLO 205 colon): 66.3 µM
- TGI (OVCAR-8 ovarian): > 94 µM
- TGI (NCI-H23 lung): > 100 µM
- TGI (786-0 renal): > 100 µM
- TGI (CAKI-1 renal): > 56.2 µM
- TGI (SNB-19 CNS): > 100 µM
- TGI (A498 renal): > 100 µM
- TGI (HOP-92 NSCLC): > 100 µM
- TGI (RPMI-8226 leukemia): > 89.2 µM
- TGI (SK-MEL-28 melanoma): > 90.2 µM
- TGI (EKVX NSCLC): > 100 µM
- TGI (MCF7 breast): > 100 µM
- TGI (MDA-MB-435): > 100 µM
- TGI (XF 498 CNS): 65.3 µM
- TGI (HT29 colon): > 79.2 µM
- TGI (KM20L2 colon): > 100 µM
- TGI (UO-31 renal): > 100 µM
- TGI (HCT-116 colon): > 76.3 µM
- TGI (A549 NSCLC): > 100 µM
- TGI (SN12C renal): > 90.1 µM
- TGI (OVCAR-3 ovarian): 95.5 µM
- TGI (MDA-N): > 100 µM
- TGI (RXF 393 renal): > 100 µM
